Patent US8946238B2, “Pyrazolo[1,5-A]pyrimidines as antiviral agents” (Gilead Sciences, Inc., priority 2011, dated 2015)

test system: RSV strain A2; test: RSV antiviral cytoprotection assay in Hep2 cells (RSV-induced cytopathic effect, Cell TiterGlo); type: cell-based, Respiratory Syncytial Virus (RSV); conditions: human respiratory syncytial virus, HEp-2, 0.5 μM compound; RSV A2-infected Hep2 cells; % inhibition calculated from 4-parameter dose response curve, normalized to 0% and 100%; read-out: Percent inhibition at 0.5 μM
In short: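 Hep2 cells were infected with RSV A2 and exposed to 3-fold compound dilutions, either 3,000 cells/well for 4 days (96-well) or 2000 cells/well at MOI 1:1000 for 5 days at 37° C. (384-well). Cytopathic effect was read by Cell TiterGlo luminescence, and EC50 or normalized % inhibition came from curve fits against infected and uninfected controls.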

Row | SMILES | inhibition at 0.5 µM
1 | COc1cccc(C(=O)N2CCCC[C@H]2c2cc3nc(N4C[C@@H](C#N)[C@@H](O)C4)c(C)cn3n2)c1C [Compound 165] | 92%
2 | Cc1cn2nc([C@@H]3CCCCN3C(=O)c3cccc(F)n3)cc2nc1N1CC[C@H](N)C1 [Compound 81] | 96%
3 | Cc1cn2nc([C@@H]3CCCCN3C(=O)c3cc(F)c(F)c(Cl)c3F)cc2nc1N1CC[C@H](N)C1 [Compound 28] | 100%
4 | CN[C@H]1CCN(c2nc3cc([C@@H]4CCCCN4C(=O)c4cc(Cl)ccc4NS(C)(=O)=O)nn3cc2C)C1 [Compound 11] | 92%
5 | Cc1cccc(C(=O)N2CCCC[C@H]2c2cc3nc(N4C[C@@H](C#N)[C@@H](O)C4)c(C)cn3n2)n1 [Compound 176] | 97%
6 | Cc1cn2nc([C@@H]3CCCCN3C(=O)c3cccc4c3OCO4)cc2nc1N1CC[C@H](N)C1 [Compound 61] | 100%
7 | Cc1cn2nc([C@@H]3CCCCN3C(=O)c3ccc4cnccc4n3)cc2nc1N1CC[C@H](N)C1 [Compound 41] | 4%
8 | COc1ccc(F)c(C(=O)N2CCCC[C@H]2c2cc3nc(N4CC[C@H](N)C4)c(C)cn3n2)n1 [Compound 107] | 100%
9 | Cc1cn2nc([C@@H]3CCCCN3C(=O)c3cccc(F)c3Cl)cc2nc1N1CC[C@H](N)C1 [Compound 30] | 100%
10 | Cc1cn2nc([C@@H]3CCCCN3C(=O)c3cc(Cl)ccc3NS(C)(=O)=O)cc2nc1N1C[C@@H](C#N)[C@@H](OC(=O)CCC(=O)O)C1 [Compound 207] | 100%
11 | Cc1cn2nc([C@@H]3CCCCN3C(=O)c3cc(Cl)ccc3NS(C)(=O)=O)cc2nc1N[C@H]1C[C@@H](N)C1 [Compound 6] | 100%
12 | Cc1cc(F)ccc1C(=O)N1CCCC[C@H]1c1cc2nc(N3CC[C@H](N)C3)c(C)cn2n1 [Compound 77] | 100%
13 | Cc1cn2nc([C@@H]3CCCCN3C(=O)c3ccccc3S(N)(=O)=O)cc2nc1N1CC[C@H](N)C1 [Compound 45] | 45%
14 | Cc1cn2nc([C@@H]3CCCCN3C(=O)c3ccccc3Cl)cc2nc1N1C[C@@H](C#N)[C@@H](O)C1 [Compound 146] | 100%
15 | Cc1cn2nc([C@@H]3CCCCN3C(=O)c3nc(Cl)ccc3Cl)cc2nc1N1C[C@@H](C#N)[C@@H](O)C1 [Compound 152] | 100%
16 | Cc1cn2nc([C@@H]3CCCCN3C(=O)c3cc(Cl)ccc3NS(C)(=O)=O)cc2nc1N[C@H]1C[C@H]2C[C@@H]1CN2 [Compound 21] | 58%
17 | Cc1ccc(Cl)c(C(=O)N2CCCC[C@H]2c2cc3nc(N4CC[C@H](N)C4)c(C)cn3n2)c1 [Compound 89] | 100%
18 | Cc1cn2nc([C@@H]3CCCCN3C(=O)c3csc4ccc(Br)cc34)cc2nc1N1CC[C@H](N)C1 [Compound 99] | 100%
19 | Cc1cn2nc([C@@H]3CCCCN3C(=O)c3cccc(C)c3C)cc2nc1N1C[C@@H](C#N)[C@@H](O)C1 [Compound 169] | 100%
20 | Cc1cn2nc([C@@H]3CCCCN3C(=O)c3ccc(Cl)cn3)cc2nc1N1CC[C@H](N)C1 [Compound 93] | 44%
21 | Cc1cn2nc([C@@H]3CCCCN3C(=O)c3c(F)cccc3Cl)cc2nc1N1CC[C@H](N)C1 [Compound 82] | 100%

Row | SMILES | inhibition at 0.5 µM
22 | Cc1cn2nc([C@@H]3CCCCN3C(=O)c3cccc4c3CCCN4)cc2nc1N1C[C@@H](C#N)[C@@H](O)C1 [Compound 139] | 100%
23 | Cc1cn2nc([C@@H]3CCCCN3C(=O)c3cc(Cl)ccc3NS(C)(=O)=O)cc2nc1N1C[C@@H](C#N)[C@@H](OC(=O)c2cccnc2)C1 [Compound 208] | 100%
24 | Cc1cn2nc([C@@H]3CCCCN3C(=O)c3cccc(CO)n3)cc2nc1N1CC[C@H](N)C1 [Compound 70] | 56%
25 | Cc1cn2nc([C@@H]3CCCCN3C(=O)c3ccccc3OC3CCCC3)cc2nc1N1C[C@@H](C#N)[C@@H](O)C1 [Compound 144] | 80%
26 | Cc1cn2nc([C@@H]3CCCCN3C(=O)c3[nH]c4c(C)ccc(C)c4c3C)cc2nc1N1CC[C@H](N)C1 [Compound 53] | 25%
27 | CNC(=O)[C@H]1CN(c2nc3cc([C@@H]4CCCCN4C(=O)c4cc(Cl)ccc4NS(C)(=O)=O)nn3cc2C)CCN1 [Compound 23] | 48%
28 | COc1ccc(C(C)(C)C)cc1C(=O)N1CCCC[C@H]1c1cc2nc(N3CC[C@H](N)C3)c(C)cn2n1 [Compound 34] | 13%
29 | Cc1cn2nc([C@@H]3CCCCN3C(=O)c3cccc4c3CCCC4)cc2nc1N1CC[C@H](N)C1 [Compound 31] | 100%
30 | Cc1cn2nc([C@@H]3CCCCN3C(=O)c3cc(Br)ccc3NS(C)(=O)=O)cc2nc1N1C[C@@H](C#N)[C@@H](O)C1 [Compound 199] | 100%
31 | Cc1cn2nc([C@@H]3CCCCN3C(=O)c3cc(Cl)ccn3)cc2nc1N1CC[C@H](N)C1 [Compound 83] | 99%
32 | Cc1cn2nc([C@@H]3CCCCN3C(=O)c3cc(F)ccc3Cl)cc2nc1N1C[C@@H](C#N)[C@@H](O)C1 [Compound 186] | 100%
33 | COc1ccccc1C(=O)N1CCCC[C@H]1c1cc2nc(N3C[C@@H](C#N)[C@@H](O)C3)c(C)cn2n1 [Compound 113] | 100%
34 | Cc1ccc(S(C)(=O)=O)cc1C(=O)N1CCCC[C@H]1c1cc2nc(N3CC[C@H](N)C3)c(C)cn2n1 [Compound 58] | 61%
35 | Cc1cn2nc([C@@H]3CCCCN3C(=O)c3ccc(-c4ccccc4)cn3)cc2nc1N1CC[C@H](N)C1 [Compound 42] | 9%
36 | COc1ccc(Cl)cc1C(=O)N1CCCC[C@H]1c1cc2nc(N3C[C@@H](C#N)[C@@H](O)C3)c(C)cn2n1 [Compound 201] | 100%
37 | Cc1cn2nc([C@@H]3CCCCN3C(=O)c3cccc4ccnn34)cc2nc1N1C[C@@H](C#N)[C@@H](O)C1 [Compound 135] | 100%
38 | Cc1cn2nc([C@@H]3CCCCN3C(=O)c3ccc(Cl)c(Cl)c3)cc2nc1N1C[C@@H](C#N)[C@@H](O)C1 [Compound 177] | 99%
39 | Cc1ccc(Br)c(C(=O)N2CCCC[C@H]2c2cc3nc(N4C[C@@H](C#N)[C@@H](O)C4)c(C)cn3n2)c1 [Compound 171] | 100%
40 | Cc1cn2nc([C@@H]3CCCCN3C(=O)c3c(C)cccc3C)cc2nc1N1CC[C@H](N)C1 [Compound 88] | 100%
41 | Cc1ccc(C(F)(F)F)c(C(=O)N2CCCC[C@H]2c2cc3nc(N4CC[C@H](N)C4)c(C)cn3n2)c1 [Compound 35] | 100%
42 | Cc1cn2nc([C@@H]3CCCCN3C(=O)c3cc(F)c(F)c(Cl)c3F)cc2nc1N1C[C@@H](C#N)[C@@H](O)C1 [Compound 114] | 100%

Row | SMILES | inhibition at 0.5 µM
43 | Cc1cn2nc([C@@H]3CCCCN3C(=O)c3cccc4ccncc34)cc2nc1N1CC[C@H](N)C1 [Compound 46] | 100%
44 | Cc1cn2nc([C@@H]3CCCCN3C(=O)c3[nH]c4c(C)ccc(C)c4c3C)cc2nc1N1C[C@@H](C#N)[C@@H](O)C1 [Compound 134] | 35%
45 | Cc1cn2nc([C@@H]3CCCCN3C(=O)c3cc(Cl)ccc3NS(C)(=O)=O)cc2nc1N1CCN[C@@H](C)C1 [Compound 7] | 100%
46 | COc1ccsc1C(=O)N1CCCC[C@H]1c1cc2nc(N3C[C@@H](C#N)[C@@H](O)C3)c(C)cn2n1 [Compound 178] | 100%
47 | Cc1ccc(C(=O)N2CCCC[C@H]2c2cc3nc(N4C[C@@H](C#N)[C@@H](O)C4)c(C)cn3n2)c(C(F)(F)F)c1 [Compound 121] | 92%
48 | Cc1cn2nc([C@@H]3CCCCN3C(=O)c3cc(Cl)ccc3NS(C)(=O)=O)cc2nc1NCC(C)N (some centres unmarked) [Compound 1] | 100%
49 | Cc1cn2nc([C@@H]3CCCCN3C(=O)c3cccc4cn[nH]c34)cc2nc1N1C[C@@H](C#N)[C@@H](O)C1 [Compound 123] | 98%
50 | Cc1cn2nc([C@@H]3CCCCN3C(=O)c3c(F)ccc(C)c3F)cc2nc1N1CC[C@H](N)C1 [Compound 39] | 100%
51 | Cc1cn2nc([C@@H]3CCCCN3C(=O)c3cc(F)ccc3OC(F)(F)F)cc2nc1N1C[C@@H](C#N)[C@@H](O)C1 [Compound 122] | 100%
52 | Cc1cn2nc([C@@H]3CCCCN3C(=O)c3cc(F)ccc3OC(F)(F)F)cc2nc1N1CC[C@H](N)C1 [Compound 37] | 100%
53 | Cc1cn2nc([C@@H]3CCCCN3C(=O)c3cc(Cl)ccc3OC(C)C)cc2nc1N1CC[C@H](N)C1 [Compound 63] | 100%
54 | Cc1cn2nc([C@@H]3CCCCN3C(=O)c3cccc4c3OCC(=O)N4)cc2nc1N1CC[C@H](N)C1 [Compound 65] | 97%
55 | Cc1ccc(S(N)(=O)=O)cc1C(=O)N1CCCC[C@H]1c1cc2nc(N3CC[C@H](N)C3)c(C)cn2n1 [Compound 59] | 52%
56 | Cc1ccc(C(F)(F)F)c(C(=O)N2CCCC[C@H]2c2cc3nc(N4C[C@@H](C#N)[C@@H](O)C4)c(C)cn3n2)c1 [Compound 120] | 100%
57 | COc1cc(C)c(C(=O)N2CCCC[C@H]2c2cc3nc(N4CC[C@H](N)C4)c(C)cn3n2)cc1C [Compound 85] | 100%
58 | Cc1cccnc1C(=O)N1CCCC[C@H]1c1cc2nc(N3C[C@@H](C#N)[C@@H](O)C3)c(C)cn2n1 [Compound 159] | 91%
59 | Cc1cn2nc([C@@H]3CCCCN3C(=O)c3ccc(C)c(F)c3F)cc2nc1N1C[C@@H](C#N)[C@@H](O)C1 [Compound 118] | 99%
60 | COc1ccc(Cl)c(C(=O)N2CCCC[C@H]2c2cc3nc(N4C[C@@H](C#N)[C@@H](O)C4)c(C)cn3n2)c1 [Compound 188] | 100%
61 | Cc1cn2nc([C@@H]3CCCCN3C(=O)c3cc(Cl)ccc3NS(C)(=O)=O)cc2nc1N1C[C@@H](C#N)[C@@H](OC(=O)CN)C1 [Compound 206] | 100%
62 | Cc1ccc(C(=O)N2CCCC[C@H]2c2cc3nc(N4CC[C@H](N)C4)c(C)cn3n2)c(C(F)(F)F)c1 [Compound 36] | 98%
